The source of these data is ChEMBL document CHEMBL1136184, “Identification of a novel class of orally active pyrimido[5,4-3][1,2,4]triazine-5,7-diamine-based hypoglycemic agents with protein tyrosine phosphatase inhibitory activity” (Bioorg Med Chem Lett, 2003).

For series [1], the target named is T1, Tyrosine-protein phosphatase non-receptor type 1 (Homo sapiens, UniProt P18031).
T1 sequence (P18031 whole entry): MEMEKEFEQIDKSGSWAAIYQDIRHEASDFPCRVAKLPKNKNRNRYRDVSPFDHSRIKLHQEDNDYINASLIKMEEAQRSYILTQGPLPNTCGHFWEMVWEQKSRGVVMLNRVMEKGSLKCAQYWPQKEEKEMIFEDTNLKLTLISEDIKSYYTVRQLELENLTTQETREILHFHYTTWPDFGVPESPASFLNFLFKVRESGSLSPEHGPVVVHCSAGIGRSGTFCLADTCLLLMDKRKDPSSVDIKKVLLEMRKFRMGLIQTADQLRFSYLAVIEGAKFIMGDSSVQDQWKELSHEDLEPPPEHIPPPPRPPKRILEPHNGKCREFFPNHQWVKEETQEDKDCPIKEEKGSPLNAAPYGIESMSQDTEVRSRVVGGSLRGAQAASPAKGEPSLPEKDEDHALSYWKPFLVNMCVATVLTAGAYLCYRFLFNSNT
The series is described as follows: Inhibition of Protein-tyrosine phosphatase 1B in 2 mM DTT.

Series [2] has as its target T1, Tyrosine-protein phosphatase non-receptor type 1. Nature of the series: Inhibition of Protein-tyrosine phosphatase 1B in 300 nM DTT.
A short description of series [3]: Plasma clearance in mice. The class given is ADME, organism-based. Conditions: mouse.
In series [4] the target is Receptor-type tyrosine-protein phosphatase F (Homo sapiens, UniProt P10586). The series is described as follows: In vitro inhibitory concentration required against Leukocyte antigen related receptor phosphatase (LAR) in the presence of 300 nM DTT.
In series [5] the target is Receptor-type tyrosine-protein phosphatase alpha (Homo sapiens, UniProt P18433). Nature of the series: In vitro inhibitory concentration required against Protein-tyrosine phosphatase alpha in the presence of 300 nM DTT.
Series [6] is described as follows: Cmax value was determined. Conditions: mouse, in vivo. The class given is ADME, organism-based.
A further series concerns Mus musculus. The series is described as follows: Percent change in blood glucose in male ob/ob mice dosed at 5 mg/kg orally evaluated 2 hr postdose on day 5. Conditions: route oral. The format is functional.
Series [7] can be described thus: Steady state volume of distribution was determined in mice. The class given is ADME, organism-based. To be noted: mouse, in vivo; read-out: Vss.
Series [8] can be described thus: Half life in mice. The class given is ADME, organism-based. Conditions: mouse, in vivo.
Series [9] is described as follows: Oral availability at 50 mg/kg po in male mice. To be noted: mouse, in vivo. Also on record: dose 50 mg/kg, route oral. The class given is ADME, organism-based.
Series [10] concerns the target T2, Tyrosine-protein phosphatase non-receptor type 11 (Homo sapiens, UniProt Q06124).
T2 sequence (Q06124 whole entry): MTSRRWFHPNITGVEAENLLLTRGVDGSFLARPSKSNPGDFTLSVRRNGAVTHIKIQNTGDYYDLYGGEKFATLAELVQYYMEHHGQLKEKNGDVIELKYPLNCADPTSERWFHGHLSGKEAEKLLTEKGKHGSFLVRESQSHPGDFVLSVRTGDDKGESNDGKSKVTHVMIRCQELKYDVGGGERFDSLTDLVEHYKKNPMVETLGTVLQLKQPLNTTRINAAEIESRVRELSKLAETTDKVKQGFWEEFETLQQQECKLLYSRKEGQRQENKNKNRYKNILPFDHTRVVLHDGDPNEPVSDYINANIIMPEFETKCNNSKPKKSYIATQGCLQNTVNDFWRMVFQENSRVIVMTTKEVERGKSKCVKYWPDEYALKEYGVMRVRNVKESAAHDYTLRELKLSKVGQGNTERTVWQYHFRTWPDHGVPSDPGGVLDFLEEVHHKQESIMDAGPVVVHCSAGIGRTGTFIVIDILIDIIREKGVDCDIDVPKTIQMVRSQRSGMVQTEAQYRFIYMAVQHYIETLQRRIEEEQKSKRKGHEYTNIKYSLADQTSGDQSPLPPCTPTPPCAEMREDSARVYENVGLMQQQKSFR
The series is described as follows: In vitro inhibitory concentration required against Tyrosine phosphatase SHP-2 in the presence of 300 nM DTT.

Where “and” joins values, the source holds several entries; their conditions need not be identical. Identical values can stand only once.

Chain of Receptor-type tyrosine-protein phosphatase alpha (P18433 whole entry): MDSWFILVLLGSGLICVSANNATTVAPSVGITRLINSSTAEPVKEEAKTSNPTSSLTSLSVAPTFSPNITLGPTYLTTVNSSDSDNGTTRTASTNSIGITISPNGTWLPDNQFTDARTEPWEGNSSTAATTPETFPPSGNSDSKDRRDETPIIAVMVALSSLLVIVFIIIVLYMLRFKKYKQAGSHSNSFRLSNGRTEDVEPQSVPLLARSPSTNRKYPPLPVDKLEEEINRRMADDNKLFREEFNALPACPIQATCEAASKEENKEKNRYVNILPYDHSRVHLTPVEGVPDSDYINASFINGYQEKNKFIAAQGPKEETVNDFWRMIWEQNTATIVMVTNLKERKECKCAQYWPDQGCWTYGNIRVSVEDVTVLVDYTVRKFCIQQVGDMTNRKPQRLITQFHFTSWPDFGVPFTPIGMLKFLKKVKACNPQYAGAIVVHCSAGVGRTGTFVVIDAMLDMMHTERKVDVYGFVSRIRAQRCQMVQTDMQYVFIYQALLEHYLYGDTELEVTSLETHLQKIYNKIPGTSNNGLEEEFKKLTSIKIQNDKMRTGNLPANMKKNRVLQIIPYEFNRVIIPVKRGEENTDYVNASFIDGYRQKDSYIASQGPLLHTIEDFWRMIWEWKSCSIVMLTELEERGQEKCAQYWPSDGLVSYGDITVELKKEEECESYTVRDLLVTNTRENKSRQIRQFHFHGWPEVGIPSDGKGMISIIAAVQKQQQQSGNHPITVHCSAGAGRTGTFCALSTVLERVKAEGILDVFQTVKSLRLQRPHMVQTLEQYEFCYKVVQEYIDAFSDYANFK
Chain of Receptor-type tyrosine-protein phosphatase F (P10586 whole entry): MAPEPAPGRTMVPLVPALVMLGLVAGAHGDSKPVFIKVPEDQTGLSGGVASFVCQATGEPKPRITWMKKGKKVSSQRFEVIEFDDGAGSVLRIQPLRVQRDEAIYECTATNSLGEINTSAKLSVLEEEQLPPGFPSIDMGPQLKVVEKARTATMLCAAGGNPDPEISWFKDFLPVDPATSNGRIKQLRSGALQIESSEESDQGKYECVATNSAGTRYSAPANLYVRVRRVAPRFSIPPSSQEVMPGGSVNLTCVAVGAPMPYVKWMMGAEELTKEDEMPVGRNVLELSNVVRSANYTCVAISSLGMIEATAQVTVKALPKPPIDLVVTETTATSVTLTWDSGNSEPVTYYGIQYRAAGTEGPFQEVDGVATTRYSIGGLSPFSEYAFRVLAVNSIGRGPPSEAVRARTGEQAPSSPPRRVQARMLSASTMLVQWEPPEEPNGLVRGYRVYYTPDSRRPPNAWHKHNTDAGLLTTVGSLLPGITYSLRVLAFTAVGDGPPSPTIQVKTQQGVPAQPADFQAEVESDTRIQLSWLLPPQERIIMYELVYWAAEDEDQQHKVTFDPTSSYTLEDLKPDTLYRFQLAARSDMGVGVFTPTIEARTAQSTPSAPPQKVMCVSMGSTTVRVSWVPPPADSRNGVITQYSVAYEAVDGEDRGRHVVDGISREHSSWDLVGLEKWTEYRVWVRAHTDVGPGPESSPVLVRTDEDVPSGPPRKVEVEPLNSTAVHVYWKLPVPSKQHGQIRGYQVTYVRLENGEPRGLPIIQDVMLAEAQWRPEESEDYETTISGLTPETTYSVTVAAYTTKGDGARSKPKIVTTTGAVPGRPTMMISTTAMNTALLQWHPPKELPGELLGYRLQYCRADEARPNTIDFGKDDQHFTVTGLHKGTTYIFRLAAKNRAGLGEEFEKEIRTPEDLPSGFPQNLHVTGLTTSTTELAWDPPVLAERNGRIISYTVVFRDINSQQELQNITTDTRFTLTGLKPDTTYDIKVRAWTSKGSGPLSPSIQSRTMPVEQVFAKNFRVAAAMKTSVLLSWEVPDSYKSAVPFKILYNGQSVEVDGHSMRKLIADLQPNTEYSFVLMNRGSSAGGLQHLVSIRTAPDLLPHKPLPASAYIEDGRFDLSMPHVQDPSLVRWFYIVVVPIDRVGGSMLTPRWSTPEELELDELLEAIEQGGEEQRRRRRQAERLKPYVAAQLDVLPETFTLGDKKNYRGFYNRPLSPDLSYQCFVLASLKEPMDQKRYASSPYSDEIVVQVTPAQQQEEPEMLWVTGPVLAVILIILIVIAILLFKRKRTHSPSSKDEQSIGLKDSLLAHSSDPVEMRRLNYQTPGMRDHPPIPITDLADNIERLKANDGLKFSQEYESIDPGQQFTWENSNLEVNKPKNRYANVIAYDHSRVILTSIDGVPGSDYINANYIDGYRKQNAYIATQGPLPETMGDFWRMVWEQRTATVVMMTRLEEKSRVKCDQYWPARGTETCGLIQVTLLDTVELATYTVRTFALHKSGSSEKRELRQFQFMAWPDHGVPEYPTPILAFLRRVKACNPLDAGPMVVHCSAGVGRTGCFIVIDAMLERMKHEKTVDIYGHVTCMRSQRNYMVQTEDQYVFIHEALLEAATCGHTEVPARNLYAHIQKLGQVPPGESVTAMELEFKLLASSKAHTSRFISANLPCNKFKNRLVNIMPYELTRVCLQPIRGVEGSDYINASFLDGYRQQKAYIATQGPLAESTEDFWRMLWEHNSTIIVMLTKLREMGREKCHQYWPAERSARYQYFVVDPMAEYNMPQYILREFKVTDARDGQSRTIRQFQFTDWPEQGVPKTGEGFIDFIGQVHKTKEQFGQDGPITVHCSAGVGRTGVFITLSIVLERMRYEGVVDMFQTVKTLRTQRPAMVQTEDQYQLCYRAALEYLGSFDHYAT

Regarding `Nc1nc(N)c2nc(CN3CCN(c4ccccc4)CC3)nnc2n1`, the IC50 in series [1] and in series [2] was over 100 µM in each case.
Turning to `Nc1nc(N)c2nc(CN3CCN(Cc4cccc5ccccc45)CC3)nnc2n1`, the IC50 (as a rule, the concentration that inhibits the measured activity by half) in series [1] turned out to be 40 µM; in series [2] it was 4.5 µM.
Regarding `Nc1nc(N)c2nc(CN3CCN(Cc4ccc5ccccc5c4)CC3)nnc2n1`, the figures for the IC50 in series [1] and in series [2] were 33 µM and 3.5 µM, respectively.
For `Nc1nc(N)c2nc(CN3CCN(Cc4ccc(-c5ccccc5)cc4)CC3)nnc2n1`, the IC50 in series [1] is 18 µM; in series [4] it was 16 µM; in series [5], 15 µM; in series [2] it was 2.9 µM and 8 µM; in series [10], 5 µM. Also, in series [3], the clearance (usually a measure of how efficiently the substance is removed, as volume per time) came to 104 mL/min/kg. For the same compound, in series [6], the Cmax (commonly the highest concentration seen after dosing) is 4 µM. In addition, the “Change in blood glucose” value in the series on Mus musculus is -19%. For the same compound, the Vd in series [7] is 3.1 L/kg. In addition, the half-life – broadly, how long it takes for the measured level to halve – in [8] was 1 h. Moreover, in series [9], the bioavailability – broadly, the share of a dose that reaches the circulation, judged against a reference dose that is usually intravenous – stood at 97%.
For `CCN(CC)Cc1nnc2nc(N)nc(N)c2n1`, the IC50 in [1] is over 100 µM; in [4], 28 µM; in series [5], 28 µM; in series [2], 29 µM and 12 µM; in series [10], 14 µM.
On to `Nc1nc(N)c2nc(CN3CCNCC3)nnc2n1`, for which the IC50 in series [1] was 91 µM; in series [2] it was 29 µM.
Regarding `Nc1nc(N)c2nc(CN3CCN(Cc4ccccc4)CC3)nnc2n1`, the IC50 was 98 µM in series [1]; 12 µM in series [4]; 24 µM in series [5]; 6.2 µM and 8 µM in series [2]; 9 µM in series [10]. Besides, the “Change in blood glucose” value in the series with Mus musculus was -23%.
As for `Nc1nc(N)c2nc(CN(CCO)CCO)nnc2n1`, the IC50 in series [1] is over 100 µM; in [2] it was 97 µM.
In the same order, the values of `CN1CCN(Cc2nnc3nc(N)nc(N)c3n2)CC1` are 87 µM and 21 µM.
In the same order, the values of `Nc1nc(N)c2nc(CN3CCCCC3)nnc2n1` are over 100 µM and 24 µM.
As for `Nc1nc(N)c2nc(CN3CCOCC3)nnc2n1`, the figures for the IC50 in series [1] and in series [2] were over 100 µM and 24 µM, respectively.
